Target: T1, human liver glycogen phosphorylase a (HLGPa) (Homo sapiens, UniProt P06737)
T1 construct: creating a full-length cDNA fused at the 5′ end to codons for methionine-glycine-alanine-histidine; 6xHis tag (leader Met-Gly-Ala-His6-Gly-Gly) (N); made in house; host or cells: E. coli (bacterial expression plasmid pTXK1007LTev)
T1 sequence (P06737 2-847 limits assumed): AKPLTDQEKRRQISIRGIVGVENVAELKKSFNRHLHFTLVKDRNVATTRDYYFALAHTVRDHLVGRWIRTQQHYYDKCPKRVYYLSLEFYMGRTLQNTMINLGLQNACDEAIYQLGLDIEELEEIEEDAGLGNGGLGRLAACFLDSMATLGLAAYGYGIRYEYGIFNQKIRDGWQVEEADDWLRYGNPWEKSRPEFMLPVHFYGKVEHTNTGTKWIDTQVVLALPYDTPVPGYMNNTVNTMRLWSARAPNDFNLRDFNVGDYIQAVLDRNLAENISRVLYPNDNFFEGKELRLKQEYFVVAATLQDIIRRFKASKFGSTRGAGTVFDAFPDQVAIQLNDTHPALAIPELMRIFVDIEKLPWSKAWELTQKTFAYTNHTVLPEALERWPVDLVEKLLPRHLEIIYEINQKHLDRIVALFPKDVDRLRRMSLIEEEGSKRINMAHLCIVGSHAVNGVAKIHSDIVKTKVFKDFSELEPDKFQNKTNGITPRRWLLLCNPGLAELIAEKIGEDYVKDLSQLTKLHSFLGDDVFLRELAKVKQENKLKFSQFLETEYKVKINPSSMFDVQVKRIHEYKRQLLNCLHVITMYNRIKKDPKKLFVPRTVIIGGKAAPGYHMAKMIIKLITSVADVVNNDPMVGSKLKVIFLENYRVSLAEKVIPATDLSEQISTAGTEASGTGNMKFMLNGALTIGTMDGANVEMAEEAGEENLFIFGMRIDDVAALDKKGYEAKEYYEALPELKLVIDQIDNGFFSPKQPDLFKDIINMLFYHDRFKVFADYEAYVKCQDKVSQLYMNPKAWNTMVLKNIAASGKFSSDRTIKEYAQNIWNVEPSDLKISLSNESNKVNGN
Assay: Human liver glycogen phosphorylase a enzymatic activity assay (coupled, fluorescent resorufin readout, with and without 10 mM glucose)
Type: biochemical
Conditions: human liver glycogen phosphorylase a enzymatic activity assay

IC50 [µM] | SMILES
5.2 | Cc1cccc(Cl)c1NC(=O)Nc1cc(Cl)ccc1C(=O)N[C@@H](CC(=O)O)C(=O)O [Example 88, N-[4-chloro-2-({[(2-chloro-6-methylphenyl)amino]carbonyl}amino)benzoyl]-L-aspartic acid]
17.4 | Cc1cccc(Cl)c1NC(=O)Nc1ccc(I)cc1C(=O)N[C@@H](CC(=O)O)C(=O)O [Example 89, N-[2-({[(2-chloro-6-methylphenyl)amino]carbonyl}amino)-5-iodobenzoyl]-L-aspartic acid]
22.9 | O=C(O)C[C@H](NC(=O)c1cc2ccccc2cc1NC(=O)Nc1ccccc1Br)C(=O)O [Example 90, N-[3-({[(2-bromophenyl)amino]carbonyl}amino)-2-naphthoyl]-L-aspartic acid]
7.88 | Cc1cccc(Cl)c1NC(=O)Nc1cc2ccccc2cc1C(=O)N[C@@H](Cc1ccc(Br)cc1)C(=O)O [Example 91, 4-bromo-N-[3-({[(2-chloro-6-methylphenyl)amino]carbonyl}amino)-2-naphthoyl]-L-phenylalanine]
0.59 | CCc1cccc(CC)c1NC(=O)Nc1cc2ccccc2cc1C(=O)N[C@H](C(=O)O)C1CCCCC1 [Example 93, (2S)-cyclohexyl({[3-({[(2,6-diethylphenyl)amino]carbonyl}amino)-2-naphthalenyl]carbonyl}amino)ethanoic acid]
0.53 | Cc1cccc(C)c1NC(=O)Nc1ccccc1C(=O)N[C@H](C(=O)O)C1CCCCC1 [Example 94, (2S)-cyclohexyl{[2-({[(2,6-dimethylphenyl)amino]carbonyl}amino)benzoyl]amino}acetic acid]
9.89 | Cc1ccccc1NC(=O)Nc1cc2ccccc2cc1C(=O)NC(C(=O)O)c1ccccc1 (centres unmarked) [Example 95, {[3-({[(2-methylphenyl)amino]carbonyl}amino)-2-naphthoyl]amino}(phenyl)acetic acid]
5.07 | Cc1ccccc1NC(=O)Nc1cc2ccccc2cc1C(=O)N[C@@H](Cc1cccs1)C(=O)O [Example 96, N-{[3-({[(2-methylphenyl)amino]carbonyl}amino)-2-naphthalenyl]carbonyl}-3-(2-thienyl)-L-alanine]
0.66 | Cc1cccc(C)c1NC(=O)Nc1cc2ccccc2cc1C(=O)NC(C(=O)O)c1ccccc1 (centres unmarked) [Example 97, {[3-({[(2,6-dimethylphenyl)amino]carbonyl}amino)-2-naphthoyl]amino}(phenyl)acetic acid]
0.54 | Cc1cccc(C)c1NC(=O)Nc1cc2ccccc2cc1C(=O)N[C@@H](Cc1cccs1)C(=O)O [Example 98, N-{[3-({[(2,6-dimethylphenyl)amino]carbonyl}amino)-2-naphthalenyl]carbonyl}-3-(2-thienyl)-L-alanine]
0.49 | Cc1cccc(C)c1NC(=O)Nc1cc2ccccc2cc1C(=O)N[C@@H](CC1CCCCC1)C(=O)O [Example 99, 3-cyclohexyl-N-[3-({[(2,6-dimethylphenyl)amino]carbonyl}amino)-2-naphthoyl]-L-alanine]
7.63 | O=C(Nc1ccccc1Cl)Nc1cc2ccccc2cc1C(=O)NC(C(=O)O)c1ccccc1 (centres unmarked) [Example 100, {[3-({[(2-chlorophenyl)amino]carbonyl}amino)-2-naphthoyl]amino}(phenyl)acetic acid]
2.78 | O=C(Nc1ccccc1Cl)Nc1cc2ccccc2cc1C(=O)N[C@@H](Cc1cccs1)C(=O)O [Example 101, N-{[3-({[(2-chlorophenyl)amino]carbonyl}amino)-2-naphthalenyl]carbonyl}-3-(2-thienyl)-L-alanine]
0.36 | Cc1cccc(Cl)c1NC(=O)Nc1cc2ccccc2cc1C(=O)N[C@@H](Cc1cccs1)C(=O)O [Example 102, N-{[3-({[(2-chloro-6-methylphenyl)amino]carbonyl}amino)-2-naphthalenyl]carbonyl}-3-(2-thienyl)-L-alanine]
0.06 | Cc1cc(C)c(NC(=O)Nc2cc3ccccc3cc2C(=O)NC(C(=O)O)c2ccccc2)c(C)c1 (centres unmarked) [Example 103, Phenyl({[3-({[(2,4,6-trimethylphenyl)amino]carbonyl}amino)-2-naphthalenyl]carbonyl}amino)acetic acid]
1.04 | Cc1cccc(C(C)C)c1NC(=O)Nc1cc2ccccc2cc1C(=O)NC(C(=O)O)c1ccccc1 (centres unmarked) [Example 104, {[3-({[(2-isopropyl-6-methylphenyl)amino]carbonyl}amino)-2-naphthoyl]amino}(phenyl)acetic acid]

IC50 [µM] | SMILES
19.6 | COc1cc(NC(=O)Nc2c(C)cccc2C)c(C(=O)NC(C(=O)O)c2ccccc2)cc1OC (centres unmarked) [Example 105, {[2-({[(2,6-dimethylphenyl)amino]carbonyl}amino)-4,5-dimethoxybenzoyl]amino}(phenyl)acetic acid]
4.23 | COc1cc(NC(=O)Nc2c(C)cc(C)cc2C)c(C(=O)NC(C(=O)O)c2ccccc2)cc1OC (centres unmarked) [Example 106, [(2-{[(mesitylamino)carbonyl]amino}-4,5-dimethoxybenzoyl)amino](phenyl)acetic acid]
12.2 | COc1cc(NC(=O)Nc2c(C)cccc2Cl)c(C(=O)NC(C(=O)O)c2ccccc2)cc1OC (centres unmarked) [Example 107, {[2-({[(2-chloro-6-methylphenyl)amino]carbonyl}amino)-4,5-dimethoxybenzoyl]amino}(phenyl)acetic acid]
19.8 | Cc1cccc(C(C)C)c1NC(=O)Nc1cc2ccccc2cc1C(=O)N[C@@H](C(=O)O)C1CCCCC1 [Example 109, (2R)-cyclohexyl{[3-({[(2-isopropyl-6-methylphenyl)amino]carbonyl}amino)-2-naphthoyl]amino}acetic acid]
0.86 | Cc1cccc(Cl)c1NC(=O)Nc1cc(F)c(F)cc1C(=O)N[C@H](C(=O)O)C1CCCCC1 [Example 112, (2S)-{[2-({[(2-chloro-6-methylphenyl)amino]carbonyl}amino)-4,5-difluorobenzoyl]amino}(cyclohexyl)acetic acid]
7.04 | COc1cc(NC(=O)Nc2c(C)cccc2Cl)c(C(=O)N[C@H](C(=O)O)C2CCCCC2)cc1OC [Example 113, (2S)-{[2-({[(2-chloro-6-methylphenyl)amino]carbonyl}amino)-4,5-dimethoxybenzoyl]amino}(cyclohexyl)acetic acid]
18.7 | Cc1cccc(Cl)c1NC(=O)Nc1cc(F)c(F)cc1C(=O)N[C@@H](CC1CCCCC1)C(=O)O [Example 114, N-[2-({[(2-chloro-6-methylphenyl)amino]carbonyl}amino)-4,5-difluorobenzoyl]-3-cyclohexyl-L-alanine]
13 | COc1cc(NC(=O)Nc2c(C)cccc2Cl)c(C(=O)N[C@@H](CC2CCCCC2)C(=O)O)cc1OC [Example 115, N-[2-({[(2-chloro-6-methylphenyl)amino]carbonyl}amino)-4,5-dimethoxybenzoyl]-3-cyclohexyl-L-alanine]
1.63 | Cc1cccc(C)c1NC(=O)Nc1cc(F)c(F)cc1C(=O)N[C@H](C(=O)O)C1CCCCC1 [Example 116, (2S)-cyclohexyl{[2-({[(2,6-dimethylphenyl)amino]carbonyl}amino)-4,5-difluorobenzoyl]amino}acetic acid]
14.7 | COc1cc(NC(=O)Nc2c(C)cccc2C)c(C(=O)N[C@H](C(=O)O)C2CCCCC2)cc1OC [Example 117, (2S)-cyclohexyl{[2-({[(2,6-dimethylphenyl)amino]carbonyl}amino)-4,5-dimethoxybenzoyl]amino}acetic acid]
15.7 | Cc1cccc(C)c1NC(=O)Nc1cc(F)c(F)cc1C(=O)N[C@@H](CC1CCCCC1)C(=O)O [Example 118, 3-cyclohexyl-N-[2-({[(2,6-dimethylphenyl)amino]carbonyl}amino)-4,5-difluorobenzoyl]-L-alanine]
13.6 | COc1cc(NC(=O)Nc2c(C)cccc2C)c(C(=O)N[C@@H](CC2CCCCC2)C(=O)O)cc1OC [Example 119, 3-cyclohexyl-N-[2-({[(2,6-dimethylphenyl)amino]carbonyl}amino)-4,5-dimethoxybenzoyl]-L-alanine]
24.6 | CCc1cccc(CC)c1NC(=O)Nc1cc2ccccc2cc1C(=O)NC(C(=O)O)c1ccccc1 (centres unmarked) [Example 120, {[3-({[(2,6-diethylphenyl)amino]carbonyl}amino)-2-naphthoyl]amino}(phenyl)acetic acid]
3.44 | CCc1cccc(CC)c1NC(=O)Nc1cc(Cl)ccc1C(=O)N[C@H](Cc1ccccc1F)C(=O)O [Example 121, N-[4-chloro-2-({[(2,6-diethylphenyl)amino]carbonyl}amino)benzoyl]-2-fluoro-D-phenylalanine]
2.23 | Cc1cccc(Cl)c1NC(=O)Nc1cc2ccccc2cc1C(=O)N[C@@H](CC1CCCCC1)C(=O)O [Example 122, N-[3-({[(2-chloro-6-methylphenyl)amino]carbonyl}amino)-2-naphthoyl]-3-cyclohexyl-L-alanine]
0.27 | Cc1cccc(Cl)c1NC(=O)Nc1cc2ccccc2cc1C(=O)NC(C(=O)O)c1ccccc1 (centres unmarked) [Example 123]

Source: patent US20070249670A1, “Glycogen Phosphorylase Inhibitor Compounds and Pharmaceutical Compositions Thereof” (SMITHKLINE BEECHAM CORPORATION, priority 2004, published 2007)
